Legend:
[1] = target: TRAF2 and NCK-interacting protein kinase (Homo sapiens) (UniProt Q9UKE5); assay: Selectivity interaction (KinomeScan (DiscoverX)) EUB0000045b TNIK
[2] = target: T1, Serine/threonine-protein kinase Nek2 (Homo sapiens) (UniProt P51955); assay: Selectivity interaction (KinomeScan (DiscoverX)) EUB0001079a NEK2; conditions: at 1 µM
T1 sequence (whole entry): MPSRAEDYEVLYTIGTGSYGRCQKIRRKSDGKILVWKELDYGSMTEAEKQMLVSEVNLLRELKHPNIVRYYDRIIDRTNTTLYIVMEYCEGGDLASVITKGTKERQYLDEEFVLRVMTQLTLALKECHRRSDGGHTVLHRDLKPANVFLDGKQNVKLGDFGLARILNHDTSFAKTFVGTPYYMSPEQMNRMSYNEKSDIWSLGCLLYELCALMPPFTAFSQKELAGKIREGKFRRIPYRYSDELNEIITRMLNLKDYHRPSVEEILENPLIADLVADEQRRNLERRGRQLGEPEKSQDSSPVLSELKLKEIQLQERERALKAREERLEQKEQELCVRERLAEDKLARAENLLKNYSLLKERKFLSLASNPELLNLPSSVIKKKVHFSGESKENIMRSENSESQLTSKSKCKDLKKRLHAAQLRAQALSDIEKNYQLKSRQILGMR

[3] = target: Mitogen-activated protein kinase 14 (Homo sapiens, UniProt Q16539); assay: Selectivity interaction (Kinase panel (Z-LYTE Assay)) EUB0001632a MAPK14; conditions: at 10 µM
[4] = target: Mitogen-activated protein kinase kinase kinase kinase 5 (Homo sapiens) (UniProt Q9Y4K4); assay: Selectivity interaction (KinomeScan (DiscoverX)) EUB0000666a MAP4K5; conditions: at 10 µM
[5] = target: Serine/threonine-protein kinase haspin (Homo sapiens, UniProt Q8TF76)
[6] = target: Activated CDC42 kinase 1 (Homo sapiens, UniProt Q07912); assay: Selectivity interaction (Kinase panel (Carna Biosciences)) EUB0001542aTs TNK2; conditions: at 1 µM
[7] = target: T2, Mitogen-activated protein kinase kinase kinase 5 (Homo sapiens) (UniProt Q99683); assay: Selectivity interaction (ActivX KiNativ screen (ex vivo kinase selectivity in human PBMCs)) EUB0001619a MAP3K5; assay type: cell-based; conditions: PBMC, at 1 µM
T2 sequence (whole entry): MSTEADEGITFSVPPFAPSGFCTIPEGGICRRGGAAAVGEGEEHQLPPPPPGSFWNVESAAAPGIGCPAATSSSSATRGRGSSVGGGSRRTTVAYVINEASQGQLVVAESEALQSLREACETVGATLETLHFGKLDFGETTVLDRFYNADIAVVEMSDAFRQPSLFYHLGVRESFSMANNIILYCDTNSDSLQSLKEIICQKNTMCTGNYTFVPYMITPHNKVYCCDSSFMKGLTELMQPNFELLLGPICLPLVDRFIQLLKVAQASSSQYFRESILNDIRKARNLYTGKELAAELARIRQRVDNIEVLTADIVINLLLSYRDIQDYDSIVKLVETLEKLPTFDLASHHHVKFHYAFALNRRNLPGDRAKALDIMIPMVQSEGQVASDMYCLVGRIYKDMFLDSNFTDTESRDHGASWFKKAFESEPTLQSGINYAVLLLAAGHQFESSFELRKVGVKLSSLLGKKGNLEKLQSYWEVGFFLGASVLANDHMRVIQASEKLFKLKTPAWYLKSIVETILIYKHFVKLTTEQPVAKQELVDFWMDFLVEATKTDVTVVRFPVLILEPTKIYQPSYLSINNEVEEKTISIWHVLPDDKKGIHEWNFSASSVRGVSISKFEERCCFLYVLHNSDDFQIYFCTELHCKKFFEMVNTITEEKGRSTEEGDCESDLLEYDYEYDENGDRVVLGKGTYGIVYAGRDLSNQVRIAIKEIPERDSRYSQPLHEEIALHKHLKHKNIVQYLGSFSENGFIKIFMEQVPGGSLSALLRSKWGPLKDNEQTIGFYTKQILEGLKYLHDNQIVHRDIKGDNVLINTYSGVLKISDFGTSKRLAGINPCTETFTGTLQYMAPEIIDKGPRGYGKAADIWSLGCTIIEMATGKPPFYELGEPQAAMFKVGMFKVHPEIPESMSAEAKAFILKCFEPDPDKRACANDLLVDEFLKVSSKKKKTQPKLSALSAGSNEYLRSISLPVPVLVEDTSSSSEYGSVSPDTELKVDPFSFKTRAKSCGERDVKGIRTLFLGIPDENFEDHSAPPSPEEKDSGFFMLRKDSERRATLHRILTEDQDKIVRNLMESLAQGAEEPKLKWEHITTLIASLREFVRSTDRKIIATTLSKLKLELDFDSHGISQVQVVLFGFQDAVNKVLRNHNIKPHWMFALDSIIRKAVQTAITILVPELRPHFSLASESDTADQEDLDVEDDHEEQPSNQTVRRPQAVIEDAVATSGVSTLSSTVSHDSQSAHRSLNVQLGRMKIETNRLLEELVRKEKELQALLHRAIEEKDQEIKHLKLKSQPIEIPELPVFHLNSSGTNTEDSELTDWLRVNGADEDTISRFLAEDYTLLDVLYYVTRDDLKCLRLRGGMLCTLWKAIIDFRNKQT

[8] = target: Mitogen-activated protein kinase kinase kinase 4 (Homo sapiens) (UniProt Q9Y6R4); assay: Selectivity interaction (KinomeScan (DiscoverX)) EUB0000607a MAP3K4; conditions: at 10 µM
[9] = target: Calcium/calmodulin-dependent protein kinase type II subunit delta (Homo sapiens) (UniProt Q13557); assay: Selectivity interaction (ActivX KiNativ screen (kinase selectivity in THP-1 cell lysates)) EUB0000639a CAMK2D; assay type: subcellular; conditions: lysate, at 0.2 µM
[10] = target: Mitogen-activated protein kinase kinase kinase 21 (Homo sapiens) (UniProt Q5TCX8); assay: Selectivity interaction (ActivX KiNativ screen (kinase selectivity in THP-1 cell lysates)) EUB0000639a MAP3K21; assay type: subcellular; conditions: lysate
Chain of Mitogen-activated protein kinase kinase kinase 21 (Homo sapiens) (Q5TCX8 whole entry): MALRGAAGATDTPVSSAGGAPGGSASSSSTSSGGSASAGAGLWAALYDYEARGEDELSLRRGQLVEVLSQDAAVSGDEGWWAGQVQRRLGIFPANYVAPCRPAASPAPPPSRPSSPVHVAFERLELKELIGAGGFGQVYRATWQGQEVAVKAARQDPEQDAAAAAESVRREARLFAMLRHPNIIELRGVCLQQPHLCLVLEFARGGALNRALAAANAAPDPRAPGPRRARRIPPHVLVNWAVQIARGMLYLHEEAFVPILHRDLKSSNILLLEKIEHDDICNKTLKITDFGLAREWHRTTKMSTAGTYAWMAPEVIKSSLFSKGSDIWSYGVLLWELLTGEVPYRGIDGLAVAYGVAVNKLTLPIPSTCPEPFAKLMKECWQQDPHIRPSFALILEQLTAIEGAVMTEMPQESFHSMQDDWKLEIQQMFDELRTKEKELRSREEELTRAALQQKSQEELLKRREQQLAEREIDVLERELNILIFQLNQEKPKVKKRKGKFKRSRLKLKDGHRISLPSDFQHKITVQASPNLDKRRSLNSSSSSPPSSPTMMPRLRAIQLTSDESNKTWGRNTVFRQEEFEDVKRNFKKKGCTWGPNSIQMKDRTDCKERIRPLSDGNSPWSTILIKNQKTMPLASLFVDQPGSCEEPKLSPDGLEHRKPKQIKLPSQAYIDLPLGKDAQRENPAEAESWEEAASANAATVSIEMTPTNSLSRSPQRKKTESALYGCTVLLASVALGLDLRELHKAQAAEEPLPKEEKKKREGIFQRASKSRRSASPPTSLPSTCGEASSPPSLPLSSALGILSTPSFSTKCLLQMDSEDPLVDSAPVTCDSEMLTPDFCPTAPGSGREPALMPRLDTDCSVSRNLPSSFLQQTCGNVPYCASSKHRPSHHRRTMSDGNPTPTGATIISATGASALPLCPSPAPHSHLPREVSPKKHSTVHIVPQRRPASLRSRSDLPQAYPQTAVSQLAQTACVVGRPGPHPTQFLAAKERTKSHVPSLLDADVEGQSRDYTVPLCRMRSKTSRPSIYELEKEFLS

Chain of TRAF2 and NCK-interacting protein kinase (Homo sapiens) (Q9UKE5 whole entry, looked up): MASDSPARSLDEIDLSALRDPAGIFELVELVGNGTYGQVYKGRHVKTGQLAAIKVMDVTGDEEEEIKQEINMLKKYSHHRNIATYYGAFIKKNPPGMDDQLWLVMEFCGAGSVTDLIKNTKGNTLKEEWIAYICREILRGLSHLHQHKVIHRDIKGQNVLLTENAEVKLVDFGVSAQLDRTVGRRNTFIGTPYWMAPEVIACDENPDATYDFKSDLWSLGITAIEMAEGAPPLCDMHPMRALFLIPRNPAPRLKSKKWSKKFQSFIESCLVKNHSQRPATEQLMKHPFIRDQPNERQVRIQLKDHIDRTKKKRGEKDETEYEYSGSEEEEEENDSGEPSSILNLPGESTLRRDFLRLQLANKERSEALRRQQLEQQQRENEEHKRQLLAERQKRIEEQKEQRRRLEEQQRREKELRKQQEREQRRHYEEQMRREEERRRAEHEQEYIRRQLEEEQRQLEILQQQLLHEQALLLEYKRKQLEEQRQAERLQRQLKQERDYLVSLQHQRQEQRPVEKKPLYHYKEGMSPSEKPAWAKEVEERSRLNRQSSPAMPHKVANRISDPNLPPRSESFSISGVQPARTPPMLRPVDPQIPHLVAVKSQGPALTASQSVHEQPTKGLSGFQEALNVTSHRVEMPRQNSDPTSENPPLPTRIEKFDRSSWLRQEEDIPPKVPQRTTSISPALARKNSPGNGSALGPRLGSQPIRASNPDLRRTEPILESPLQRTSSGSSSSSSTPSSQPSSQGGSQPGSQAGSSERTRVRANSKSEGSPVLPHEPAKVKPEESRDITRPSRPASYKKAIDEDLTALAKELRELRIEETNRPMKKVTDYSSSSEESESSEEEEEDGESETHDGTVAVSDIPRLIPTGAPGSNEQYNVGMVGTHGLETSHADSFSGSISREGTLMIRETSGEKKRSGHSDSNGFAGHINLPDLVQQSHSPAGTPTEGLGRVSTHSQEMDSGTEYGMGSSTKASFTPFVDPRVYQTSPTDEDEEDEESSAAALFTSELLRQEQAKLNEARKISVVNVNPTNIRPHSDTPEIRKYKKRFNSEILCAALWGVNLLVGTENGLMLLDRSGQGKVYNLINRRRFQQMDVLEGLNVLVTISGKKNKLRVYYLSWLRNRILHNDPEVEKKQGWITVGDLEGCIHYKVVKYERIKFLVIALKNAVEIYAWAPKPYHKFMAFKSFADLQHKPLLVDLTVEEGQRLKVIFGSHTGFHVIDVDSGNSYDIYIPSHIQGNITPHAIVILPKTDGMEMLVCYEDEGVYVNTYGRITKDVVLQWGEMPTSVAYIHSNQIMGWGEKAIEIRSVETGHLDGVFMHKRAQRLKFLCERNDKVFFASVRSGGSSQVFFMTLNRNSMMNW
Chain of Mitogen-activated protein kinase kinase kinase 4 (Homo sapiens) (Q9Y6R4 whole entry): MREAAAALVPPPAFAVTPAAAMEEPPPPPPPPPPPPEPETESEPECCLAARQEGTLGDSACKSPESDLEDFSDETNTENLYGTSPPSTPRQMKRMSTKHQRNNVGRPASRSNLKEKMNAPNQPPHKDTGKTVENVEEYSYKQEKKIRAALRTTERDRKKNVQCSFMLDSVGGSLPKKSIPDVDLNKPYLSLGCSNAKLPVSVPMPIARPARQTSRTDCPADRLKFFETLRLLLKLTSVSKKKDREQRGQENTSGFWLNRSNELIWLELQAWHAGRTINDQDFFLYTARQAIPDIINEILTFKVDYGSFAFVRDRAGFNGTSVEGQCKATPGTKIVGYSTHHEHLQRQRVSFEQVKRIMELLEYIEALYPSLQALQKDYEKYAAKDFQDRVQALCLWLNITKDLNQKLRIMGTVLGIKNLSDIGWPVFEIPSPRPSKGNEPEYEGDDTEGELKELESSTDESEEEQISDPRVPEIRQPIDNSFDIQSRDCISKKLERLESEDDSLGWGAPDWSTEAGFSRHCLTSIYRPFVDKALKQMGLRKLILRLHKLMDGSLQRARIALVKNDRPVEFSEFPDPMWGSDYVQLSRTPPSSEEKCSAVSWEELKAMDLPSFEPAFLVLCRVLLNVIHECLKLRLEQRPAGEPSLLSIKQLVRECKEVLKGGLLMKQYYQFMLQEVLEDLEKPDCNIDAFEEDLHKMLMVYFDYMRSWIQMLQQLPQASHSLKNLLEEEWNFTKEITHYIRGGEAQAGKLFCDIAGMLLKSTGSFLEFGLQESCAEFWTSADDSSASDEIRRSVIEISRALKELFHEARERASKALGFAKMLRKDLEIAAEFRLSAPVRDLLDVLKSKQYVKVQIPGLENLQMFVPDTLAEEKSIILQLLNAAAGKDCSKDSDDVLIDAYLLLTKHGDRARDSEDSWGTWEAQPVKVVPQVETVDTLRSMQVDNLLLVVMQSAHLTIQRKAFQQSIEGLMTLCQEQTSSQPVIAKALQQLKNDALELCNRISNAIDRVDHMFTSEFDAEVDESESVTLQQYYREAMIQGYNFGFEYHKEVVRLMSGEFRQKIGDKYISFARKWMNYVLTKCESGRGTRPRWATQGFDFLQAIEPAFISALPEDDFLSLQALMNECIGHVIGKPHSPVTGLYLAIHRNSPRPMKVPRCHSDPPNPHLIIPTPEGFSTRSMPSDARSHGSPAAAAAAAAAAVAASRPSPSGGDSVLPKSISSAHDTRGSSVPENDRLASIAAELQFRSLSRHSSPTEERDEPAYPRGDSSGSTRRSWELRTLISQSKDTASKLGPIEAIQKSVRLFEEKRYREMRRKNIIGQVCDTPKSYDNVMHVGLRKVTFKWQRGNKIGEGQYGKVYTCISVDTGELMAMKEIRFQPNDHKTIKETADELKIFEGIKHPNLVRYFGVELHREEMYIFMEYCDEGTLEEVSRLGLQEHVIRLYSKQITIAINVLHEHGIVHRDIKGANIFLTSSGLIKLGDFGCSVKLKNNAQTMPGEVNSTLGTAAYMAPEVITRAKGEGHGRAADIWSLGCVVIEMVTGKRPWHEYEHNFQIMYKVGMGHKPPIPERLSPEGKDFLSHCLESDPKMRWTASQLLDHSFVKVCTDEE
Chain of Mitogen-activated protein kinase 14 (Q16539 whole entry): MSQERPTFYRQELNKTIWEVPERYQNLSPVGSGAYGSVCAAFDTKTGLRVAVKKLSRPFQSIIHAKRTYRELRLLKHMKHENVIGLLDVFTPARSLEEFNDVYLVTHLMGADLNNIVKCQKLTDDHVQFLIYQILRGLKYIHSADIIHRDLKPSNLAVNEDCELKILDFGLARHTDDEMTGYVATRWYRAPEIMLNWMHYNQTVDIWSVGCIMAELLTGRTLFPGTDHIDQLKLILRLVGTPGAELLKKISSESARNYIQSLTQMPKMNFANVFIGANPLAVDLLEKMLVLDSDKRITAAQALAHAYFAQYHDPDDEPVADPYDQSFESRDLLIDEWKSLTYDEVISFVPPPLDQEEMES
Chain of Calcium/calmodulin-dependent protein kinase type II subunit delta (Homo sapiens) (Q13557 whole entry): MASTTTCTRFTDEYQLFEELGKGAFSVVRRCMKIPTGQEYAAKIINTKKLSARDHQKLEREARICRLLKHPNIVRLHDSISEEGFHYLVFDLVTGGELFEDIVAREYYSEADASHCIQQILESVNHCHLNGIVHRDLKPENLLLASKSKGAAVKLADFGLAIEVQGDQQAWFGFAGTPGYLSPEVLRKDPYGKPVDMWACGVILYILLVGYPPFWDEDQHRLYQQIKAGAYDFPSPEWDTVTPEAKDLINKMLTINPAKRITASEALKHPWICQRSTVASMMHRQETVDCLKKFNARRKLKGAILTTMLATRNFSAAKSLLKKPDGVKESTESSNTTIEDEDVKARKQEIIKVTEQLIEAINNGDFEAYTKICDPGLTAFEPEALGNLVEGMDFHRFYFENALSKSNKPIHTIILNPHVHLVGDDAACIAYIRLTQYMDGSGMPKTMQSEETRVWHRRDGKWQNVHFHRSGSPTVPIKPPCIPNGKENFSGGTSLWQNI

Structure (SMILES): C=CC(=O)Nc1cc(-n2c(=O)ccc3cnc4ccc(-c5ccc(NS(C)(=O)=O)cc5)cc4c32)ccc1C
- % of control ([1]; at 1 µM): 96%
- % of control ([1]; at 10 µM): 100%

Structure (SMILES): Nc1cnc(N2CCc3cc(S(=O)(=O)Nc4c(F)cc(Cl)cc4F)cc(N4CCCC4=O)c32)nc1 [TP-020n]
- % of control [2]: 89%

Structure (SMILES): Cn1cc(-n2cnc3c(NCc4nc5cc(Cl)c(Cl)cc5[nH]4)nc(N4CCOCC4)nc32)cn1
- % of control [3]: -2.35%

Structure (SMILES): O=C(NOC[C@H](O)CO)c1ccc(F)c(F)c1Nc1ccc(I)cc1F
- % of control [4]: 69%

Structure (SMILES): CCc1cccc(CC)c1NC(=O)c1nn(C)c2c1CCc1cnc(Nc3ccc(C(=O)NC4CCN(C)CC4)cc3OC(F)(F)F)nc1-2
- IC50 [5]: > 10 µM

Structure (SMILES): Cn1cc(Nc2nccc(N3CC4CCC(C3)N4C(=O)[C@@H]3CC3(F)F)n2)cn1
- % of inhibition [6]: 82%

Structure (SMILES): N#Cc1cccc(-c2c[nH]c3ncnc(N4CCOCC4)c23)c1
- % of inhibition [7]: 21%

Structure (SMILES): CNC(=O)Nc1ccc(-c2nc(N3CC4CCC(C3)O4)c3cnn(C4CCC5(CC4)OCCO5)c3n2)cc1
- % of control [8]: 86%

Structure (SMILES): CC[C@@H]1[C@H](F)C(=O)N[C@@H]1COc1nccc2cc(C(N)=O)c(OC)cc12 [ZIMLOVISERTIB]
- % of inhibition [9]: 6.9%
- % of inhibition ([10]; at 0.01 µM): 7.8%
- % of inhibition ([10]; at 0.04 µM): 2%
- % of inhibition ([10]; at 0.2 µM): 4.6%
- % of inhibition ([10]; at 1 µM): 14%
- % of inhibition ([10]; at 5 µM): 17%
